Data from patent US20240199546A1, “INHIBITORS OF SOLUTE CARRIER FAMILY 6A MEMBER 19 (SLC6A19) AND METHODS OF USE THEREOF” (Maze Therapeutics, Inc., priority 2022, published 2024).

Experiments:
human SLC6A19 and TMEM27 [1] = target: T1, human SLC6A19 and TMEM27 (Homo sapiens, UniProt Q695T7); test: Radiolabelled (3H) leucine uptake in CHO cells with doxycycline-inducible expression of human SLC6A19 and TMEM27 (Example B-1); format: cell-based; settings: CHO cells with doxycycline-inducible expression of human SLC6A19 and TMEM27, read-out: SLC6A19_Radioligand Uptake Assay IC50
T1 construct: expressed in transfected cells
T1 sequence (Q695T7 1-634): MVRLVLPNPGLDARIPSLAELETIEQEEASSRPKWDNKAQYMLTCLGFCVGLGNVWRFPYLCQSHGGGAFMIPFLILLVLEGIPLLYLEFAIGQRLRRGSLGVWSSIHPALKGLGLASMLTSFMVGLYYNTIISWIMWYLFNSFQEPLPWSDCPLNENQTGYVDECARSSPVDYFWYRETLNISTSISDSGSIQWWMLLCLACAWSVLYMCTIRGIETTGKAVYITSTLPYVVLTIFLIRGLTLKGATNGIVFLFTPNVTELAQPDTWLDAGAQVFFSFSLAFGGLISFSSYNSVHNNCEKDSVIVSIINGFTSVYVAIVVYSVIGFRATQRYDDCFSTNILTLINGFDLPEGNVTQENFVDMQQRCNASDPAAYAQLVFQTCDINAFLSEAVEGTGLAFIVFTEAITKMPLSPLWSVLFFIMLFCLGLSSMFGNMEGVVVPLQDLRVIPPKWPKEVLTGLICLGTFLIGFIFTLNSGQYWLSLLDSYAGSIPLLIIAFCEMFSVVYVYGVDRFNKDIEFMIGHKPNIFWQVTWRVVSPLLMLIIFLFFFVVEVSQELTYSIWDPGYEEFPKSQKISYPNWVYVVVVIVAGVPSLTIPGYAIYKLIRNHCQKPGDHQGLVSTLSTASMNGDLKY
T1 sequence (Q9HBJ8 15-222 partner): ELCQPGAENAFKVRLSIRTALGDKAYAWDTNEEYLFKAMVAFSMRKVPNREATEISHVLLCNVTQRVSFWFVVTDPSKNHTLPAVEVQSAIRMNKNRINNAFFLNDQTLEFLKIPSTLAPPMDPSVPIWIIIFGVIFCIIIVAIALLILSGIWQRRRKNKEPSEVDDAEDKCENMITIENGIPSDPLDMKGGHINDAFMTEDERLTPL
Method in brief: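 CHO cells were induced with doxycycline for 18 h at 37 °C, washed in HBSS, then exposed to compounds for 1 h: 8-point, 3-fold dilutions in duplicate, 0.5% DMSO final. Uptake measured by scintillation counting after 2 h shaking. Activity normalized with positive control as 0% and DMSO as 100%.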

human SLC6A19 and TMEM27 [2] = target: T1, human SLC6A19 and TMEM27; test: 13C6,15N-isoleucine uptake in CHO cells with doxycycline-inducible expression of human SLC6A19 and TMEM27, RapidFire mass spectrometry (Example B-2); format: cell-based; settings: read-out: SLC6A19_RapidFire Uptake Assay IC50
Method in brief: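 Read-out is RapidFire mass-spec peak area of 13C6,15N-isoleucine taken up over 20 min at 37 °C, after 20 min compound pre-exposure in pH 7.2 HEPES-buffered saline. Cells: doxycycline-induced CHO co-expressing human SLC6A19 and TMEM27; compounds as duplicate 10-point 2-fold dilutions, positive control setting 0% activity.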

SMILES	IC50 (human SLC6A19 and TMEM27 [1])	IC50 (human SLC6A19 and TMEM27 [2])
O=C(NCc1cc2cc(Cl)c(NCc3cscn3)cc2[nH]1)N1CCCC1 [Compound 414, N-((5-chloro-6-((thiazol-4-ylmethyl)amino)-1H-indol-2-yl)methyl)pyrrolidine-1-carboxamide]	339 nM	281 nM
CC1CN(C(=O)NCc2cc3cc(Cl)c(OCc4ccon4)cc3[nH]2)C1 [Compound 390, N-((5-chloro-6-(isoxazol-3-ylmethoxy)-1H-indol-2-yl)methyl)-3-methylazetidine-1-carboxamide]	340 nM	402 nM
CC1(C(=O)NCc2cc3cc(Cl)c(OCc4ccno4)cc3[nH]2)CC1 [Compound 326, N-((5-chloro-6-(isoxazol-5-ylmethoxy)-1H-indol-2-yl)methyl)-1-methylcyclopropane-1-carboxamide]	196 nM	125 nM
CC1(C(=O)NCc2cc3cc(F)c(OCc4ccon4)cc3[nH]2)CC1 [Compound 6, N-((5-fluoro-6-(isoxazol-3-ylmethoxy)-1H-indol-2-yl)methyl)-1-methylcyclopropane-1-carboxamide]	175 nM	148 nM
O=C(NCc1cc2cc(F)c(NCc3ccon3)cc2[nH]1)N1CCCC1 [Compound 471, N-((5-fluoro-6-((isoxazol-3-ylmethyl)amino)-1H-indol-2-yl)methyl)pyrrolidine-1-carboxamide]	599 nM	1090 nM
CC(=O)NCc1cc2cc(F)c(NCc3ccon3)cc2[nH]1 [Compound 228, N-((5-fluoro-6-((isoxazol-3-ylmethyl)amino)-1H-indol-2-yl)methyl)acetamide]	3170 nM	11200 nM
CC(=O)NCc1cc2cc(C)c(OCc3cscn3)cc2[nH]1 [Compound 234, N-((5-methyl-6-(thiazol-4-ylmethoxy)-1H-indol-2-yl)methyl)acetamide]	360 nM	455 nM
O=C(NCc1cc2ccc(OCc3ccon3)cc2[nH]1)N1CCC1 [Compound 122, N-((6-(isoxazol-3-ylmethoxy)-1H-indol-2-yl)methyl)azetidine-1-carboxamide]	360 nM	783 nM
CC(=O)NCc1cc2cc(Cl)c(OCc3cnn(C)n3)cc2[nH]1 [Compound 221, N-((5-chloro-6-((2-methyl-2H-1,2,3-triazol-4-yl)methoxy)-1H-indol-2-yl)methyl)acetamide]	288 nM	468 nM
Cc1cc2cc(CNC(=O)N3CCC3)[nH]c2cc1OCc1ccon1 [Compound 532, N-((6-(isoxazol-3-ylmethoxy)-5-methyl-1H-indol-2-yl)methyl)azetidine-1-carboxamide]	509 nM	632 nM
CC1(C(=O)NCc2cc3cc(Cl)c(OCc4ccccn4)cc3[nH]2)CC1 [Compound 41, N-((5-chloro-6-(pyridin-2-ylmethoxy)-1H-indol-2-yl)methyl)-1-methylcyclopropane-1-carboxamide]	261 nM	71 nM
CC(C)C(=O)NCc1cc2cc(F)c(OCc3cocn3)cc2[nH]1 [Compound 501, N-((5-fluoro-6-(oxazol-4-ylmethoxy)-1H-indol-2-yl)methyl)isobutyramide]	312 nM	1300 nM
CC1(C(=O)NCc2cc3cc(Cl)c(OCc4ccc(F)nc4)cc3[nH]2)CC1 [Compound 31, N-((5-chloro-6-((6-fluoropyridin-3-yl)methoxy)-1H-indol-2-yl)methyl)-1-methylcyclopropane-1-carboxamide]	419 nM	504 nM
CC(=O)NCc1cc2cc(F)c(OCc3cc(C)on3)cc2[nH]1 [Compound 205, N-((5-fluoro-6-((5-methylisoxazol-3-yl)methoxy)-1H-indol-2-yl)methyl)acetamide]	787 nM	714 nM
CNC(=O)NCc1cc2cc(F)c(OCc3ccon3)cc2[nH]1 [Compound 216, 1-((5-fluoro-6-(isoxazol-3-ylmethoxy)-1H-indol-2-yl)methyl)-3-methylurea]	1410 nM	3740 nM
O=C(NCc1cc2cc(Cl)c(NCc3cscn3)cc2[nH]1)N1CCC1 [Compound 472, N-((5-chloro-6-((thiazol-4-ylmethyl)amino)-1H-indol-2-yl)methyl)azetidine-1-carboxamide]	304 nM	397 nM
Cc1cc(COc2cc3[nH]c(CNC(=O)N4CCC4)cc3cc2Cl)on1 [Compound 404, N-((5-chloro-6-((3-methylisoxazol-5-yl)methoxy)-1H-indol-2-yl)methyl)azetidine-1-carboxamide]	268 nM	147 nM
Cc1nc(COc2cc3[nH]c(CNC(=O)N4CCC4)cc3cc2Cl)co1 [Compound 408, N-((5-chloro-6-((2-methyloxazol-4-yl)methoxy)-1H-indol-2-yl)methyl)azetidine-1-carboxamide]	478 nM	498 nM
CC(=O)NCc1cc2cc(F)c(OCc3cnn(C)n3)cc2[nH]1 [Compound 222, N-((5-fluoro-6-((2-methyl-2H-1,2,3-triazol-4-yl)methoxy)-1H-indol-2-yl)methyl)acetamide]	3170 nM	6610 nM
CC(=O)NCc1cc2cc(Cl)c(OCc3ccno3)cc2[nH]1 [Compound 219, N-((5-chloro-6-(isoxazol-5-ylmethoxy)-1H-indol-2-yl)methyl)acetamide]	134 nM	103 nM
Cn1ncc(COc2cc3[nH]c(CNC(=O)C4(C)CC4)cc3cc2Cl)n1 [Compound 172, N-((5-chloro-6-((2-methyl-2H-1,2,3-triazol-4-yl)methoxy)-1H-indol-2-yl)methyl)-1-methylcyclopropane-1-carboxamide]	157 nM	41 nM

These reach a lower IC50 (human SLC6A19 and TMEM27 [1]). Values come first.

IC50 (human SLC6A19 and TMEM27 [1])	IC50 (human SLC6A19 and TMEM27 [2])	SMILES
130 nM	117 nM	CNC(=O)NCc1cc2cc(Cl)c(OCc3cscn3)cc2[nH]1 [Compound 209, 1-((5-chloro-6-(thiazol-4-ylmethoxy)-1H-indol-2-yl)methyl)-3-methylurea]
118 nM	76 nM	Cc1cc2cc(CNC(=O)C3(C)CC3)[nH]c2cc1OCc1cscn1 [Compound 11, 1-methyl-N-((5-methyl-6-(thiazol-4-ylmethoxy)-1H-indol-2-yl)methyl)cyclopropane-1-carboxamide]
117 nM	62 nM	Cc1cnc(COc2cc3[nH]c(CNC(=O)C4(C)CC4)cc3cc2Cl)o1 [Compound 70, N-((5-chloro-6-((5-methyloxazol-2-yl)methoxy)-1H-indol-2-yl)methyl)-1-methylcyclopropane-1-carboxamide]
100 nM	34 nM	CC1(C(=O)NCc2cc3ccc(CCc4cscn4)cc3[nH]2)CC1 [Compound 76, 1-methyl-N-((6-(2-(thiazol-4-yl)ethyl)-1H-indol-2-yl)methyl)cyclopropane-1-carboxamide]
85 nM	65 nM	Cc1cc(COc2cc3[nH]c(CNC(=O)C(C)C)cc3cc2Cl)no1 [Compound 130, N-((5-chloro-6-((5-methylisoxazol-3-yl)methoxy)-1H-indol-2-yl)methyl)isobutyramide]
85 nM	34 nM	CC1(C(=O)NCc2cc3cc(Cl)c(CCc4cscn4)cc3[nH]2)CC1 [Compound 149, N-((5-chloro-6-(2-(thiazol-4-yl)ethyl)-1H-indol-2-yl)methyl)-1-methylcyclopropane-1-carboxamide]
82 nM	49 nM	CC(C)C(=O)NCc1cc2cc(F)c(OCc3cscn3)cc2[nH]1 [Compound 135, N-((5-fluoro-6-(thiazol-4-ylmethoxy)-1H-indol-2-yl)methyl)isobutyramide]
80 nM	44 nM	CCC(=O)NCc1cc2cc(Cl)c(OCc3ccon3)cc2[nH]1 [Compound 129, N-((5-chloro-6-(isoxazol-3-ylmethoxy)-1H-indol-2-yl)methyl)propionamide]
70.9 nM	26.8 nM	CCC(=O)NCc1cc2cc(Cl)c(OCc3cc(C)no3)cc2[nH]1 [Compound 438, N-((5-chloro-6-((3-methylisoxazol-5-yl)methoxy)-1H-indol-2-yl)methyl)propionamide]
67 nM	33 nM	O=C(NCc1cc2cc(Cl)c(OCc3cscn3)cc2[nH]1)C1CC1 [Compound 147, N-((5-chloro-6-(thiazol-4-ylmethoxy)-1H-indol-2-yl)methyl)cyclopropanecarboxamide]
